# Like-named read-outs stand apart in the source and are kept apart here.
# Assays:
# PDE4D2 = target: T1, PDE4D2 (Homo sapiens, UniProt Q08499); assay: BioPrint panel: PDE4D2 (h); format: biochemical; details: 1 micromolar, read-out: percentage of inhibition of activity
# T1 construct: purchased Eurofins Pharma Discovery Services (KinaseProfiler; Cerep BioPrint panel)
# Source text: (§1) Supplement pone.0189247.s004.xlsx, sheet "Bioprint Selectivity Panel" | column: %
# HIV-1 protease = assay: BioPrint panel: HIV-1 protease; format: biochemical; details: 1 micromolar
# Source text: as §1
# ERalpha = target: T2, ERalpha (Homo sapiens, UniProt P03372); assay: BioPrint panel: ERalpha (h) (agonist fluoligand); format: binding; details: 1 micromolar, read-out: percentage of inhibition of activity
# T2 construct: purchased Eurofins Pharma Discovery Services (KinaseProfiler; Cerep BioPrint panel)
# T2 sequence (P03372 whole entry): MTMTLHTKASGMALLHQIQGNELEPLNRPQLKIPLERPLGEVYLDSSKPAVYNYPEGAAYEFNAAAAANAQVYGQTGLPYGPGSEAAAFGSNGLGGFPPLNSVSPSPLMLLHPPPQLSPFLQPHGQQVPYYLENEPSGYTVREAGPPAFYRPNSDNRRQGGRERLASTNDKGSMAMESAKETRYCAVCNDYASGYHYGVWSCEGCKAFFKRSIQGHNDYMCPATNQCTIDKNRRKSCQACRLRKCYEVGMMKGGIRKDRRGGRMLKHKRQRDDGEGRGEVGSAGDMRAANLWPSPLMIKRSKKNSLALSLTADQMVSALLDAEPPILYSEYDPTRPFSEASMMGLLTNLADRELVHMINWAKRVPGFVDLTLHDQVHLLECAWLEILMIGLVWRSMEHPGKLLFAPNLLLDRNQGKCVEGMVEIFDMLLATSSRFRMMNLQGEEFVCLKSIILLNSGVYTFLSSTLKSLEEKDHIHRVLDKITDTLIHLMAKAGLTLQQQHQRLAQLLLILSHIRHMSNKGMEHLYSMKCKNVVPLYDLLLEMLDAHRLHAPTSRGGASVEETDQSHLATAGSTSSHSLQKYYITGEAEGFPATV
# Source text: as §1
# N neuronal a4 b2 = target: T3, N neuronal a4 b2 (Homo sapiens, UniProt P17787+P43681); assay: BioPrint panel: N neuronal a4 b2 (h) (agonist); format: binding; details: 1 micromolar, read-out: percentage of inhibition of activity
# T3 construct: purchased Eurofins Pharma Discovery Services (KinaseProfiler; Cerep BioPrint panel)
# T3 sequence (P43681 29-627 limits assumed): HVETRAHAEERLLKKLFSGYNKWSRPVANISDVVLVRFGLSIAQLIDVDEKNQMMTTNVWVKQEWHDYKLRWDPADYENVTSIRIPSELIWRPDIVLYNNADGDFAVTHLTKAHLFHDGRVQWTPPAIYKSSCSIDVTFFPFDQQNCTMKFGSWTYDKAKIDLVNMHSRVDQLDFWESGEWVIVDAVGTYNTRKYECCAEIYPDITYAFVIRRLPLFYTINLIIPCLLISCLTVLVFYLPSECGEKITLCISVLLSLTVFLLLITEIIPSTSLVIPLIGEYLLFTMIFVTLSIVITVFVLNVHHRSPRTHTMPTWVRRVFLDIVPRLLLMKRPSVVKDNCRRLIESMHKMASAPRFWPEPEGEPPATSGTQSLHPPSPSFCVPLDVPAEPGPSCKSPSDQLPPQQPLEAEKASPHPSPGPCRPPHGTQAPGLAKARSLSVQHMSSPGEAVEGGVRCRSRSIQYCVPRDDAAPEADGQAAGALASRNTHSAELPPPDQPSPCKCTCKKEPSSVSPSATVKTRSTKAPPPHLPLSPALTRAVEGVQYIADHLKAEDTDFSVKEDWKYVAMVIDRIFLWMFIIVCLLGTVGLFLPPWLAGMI
# T3 sequence (P17787 26-502): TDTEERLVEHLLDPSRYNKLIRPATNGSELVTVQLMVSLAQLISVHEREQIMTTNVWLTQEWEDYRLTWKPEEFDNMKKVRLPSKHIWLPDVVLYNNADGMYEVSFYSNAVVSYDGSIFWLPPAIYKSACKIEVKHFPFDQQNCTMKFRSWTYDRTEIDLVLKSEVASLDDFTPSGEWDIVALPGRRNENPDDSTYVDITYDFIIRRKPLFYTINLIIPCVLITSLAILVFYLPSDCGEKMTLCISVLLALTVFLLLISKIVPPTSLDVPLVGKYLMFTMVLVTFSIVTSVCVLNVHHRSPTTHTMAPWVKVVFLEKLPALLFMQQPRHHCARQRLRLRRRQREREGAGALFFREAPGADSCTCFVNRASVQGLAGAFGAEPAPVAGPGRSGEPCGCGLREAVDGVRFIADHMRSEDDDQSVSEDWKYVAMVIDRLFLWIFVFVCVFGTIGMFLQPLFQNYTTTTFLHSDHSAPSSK
# Source text: as §1
# Ca2+ channel (N) = target: T4, Ca2+ channel (N) (Rattus norvegicus, UniProt Q02294); assay: BioPrint panel: Ca2+ channel (N) (antagonist); format: binding; details: 1 micromolar, read-out: percentage of inhibition of activity
# T4 construct: purchased Eurofins Pharma Discovery Services (KinaseProfiler; Cerep BioPrint panel)
# T4 sequence (Q02294 whole entry): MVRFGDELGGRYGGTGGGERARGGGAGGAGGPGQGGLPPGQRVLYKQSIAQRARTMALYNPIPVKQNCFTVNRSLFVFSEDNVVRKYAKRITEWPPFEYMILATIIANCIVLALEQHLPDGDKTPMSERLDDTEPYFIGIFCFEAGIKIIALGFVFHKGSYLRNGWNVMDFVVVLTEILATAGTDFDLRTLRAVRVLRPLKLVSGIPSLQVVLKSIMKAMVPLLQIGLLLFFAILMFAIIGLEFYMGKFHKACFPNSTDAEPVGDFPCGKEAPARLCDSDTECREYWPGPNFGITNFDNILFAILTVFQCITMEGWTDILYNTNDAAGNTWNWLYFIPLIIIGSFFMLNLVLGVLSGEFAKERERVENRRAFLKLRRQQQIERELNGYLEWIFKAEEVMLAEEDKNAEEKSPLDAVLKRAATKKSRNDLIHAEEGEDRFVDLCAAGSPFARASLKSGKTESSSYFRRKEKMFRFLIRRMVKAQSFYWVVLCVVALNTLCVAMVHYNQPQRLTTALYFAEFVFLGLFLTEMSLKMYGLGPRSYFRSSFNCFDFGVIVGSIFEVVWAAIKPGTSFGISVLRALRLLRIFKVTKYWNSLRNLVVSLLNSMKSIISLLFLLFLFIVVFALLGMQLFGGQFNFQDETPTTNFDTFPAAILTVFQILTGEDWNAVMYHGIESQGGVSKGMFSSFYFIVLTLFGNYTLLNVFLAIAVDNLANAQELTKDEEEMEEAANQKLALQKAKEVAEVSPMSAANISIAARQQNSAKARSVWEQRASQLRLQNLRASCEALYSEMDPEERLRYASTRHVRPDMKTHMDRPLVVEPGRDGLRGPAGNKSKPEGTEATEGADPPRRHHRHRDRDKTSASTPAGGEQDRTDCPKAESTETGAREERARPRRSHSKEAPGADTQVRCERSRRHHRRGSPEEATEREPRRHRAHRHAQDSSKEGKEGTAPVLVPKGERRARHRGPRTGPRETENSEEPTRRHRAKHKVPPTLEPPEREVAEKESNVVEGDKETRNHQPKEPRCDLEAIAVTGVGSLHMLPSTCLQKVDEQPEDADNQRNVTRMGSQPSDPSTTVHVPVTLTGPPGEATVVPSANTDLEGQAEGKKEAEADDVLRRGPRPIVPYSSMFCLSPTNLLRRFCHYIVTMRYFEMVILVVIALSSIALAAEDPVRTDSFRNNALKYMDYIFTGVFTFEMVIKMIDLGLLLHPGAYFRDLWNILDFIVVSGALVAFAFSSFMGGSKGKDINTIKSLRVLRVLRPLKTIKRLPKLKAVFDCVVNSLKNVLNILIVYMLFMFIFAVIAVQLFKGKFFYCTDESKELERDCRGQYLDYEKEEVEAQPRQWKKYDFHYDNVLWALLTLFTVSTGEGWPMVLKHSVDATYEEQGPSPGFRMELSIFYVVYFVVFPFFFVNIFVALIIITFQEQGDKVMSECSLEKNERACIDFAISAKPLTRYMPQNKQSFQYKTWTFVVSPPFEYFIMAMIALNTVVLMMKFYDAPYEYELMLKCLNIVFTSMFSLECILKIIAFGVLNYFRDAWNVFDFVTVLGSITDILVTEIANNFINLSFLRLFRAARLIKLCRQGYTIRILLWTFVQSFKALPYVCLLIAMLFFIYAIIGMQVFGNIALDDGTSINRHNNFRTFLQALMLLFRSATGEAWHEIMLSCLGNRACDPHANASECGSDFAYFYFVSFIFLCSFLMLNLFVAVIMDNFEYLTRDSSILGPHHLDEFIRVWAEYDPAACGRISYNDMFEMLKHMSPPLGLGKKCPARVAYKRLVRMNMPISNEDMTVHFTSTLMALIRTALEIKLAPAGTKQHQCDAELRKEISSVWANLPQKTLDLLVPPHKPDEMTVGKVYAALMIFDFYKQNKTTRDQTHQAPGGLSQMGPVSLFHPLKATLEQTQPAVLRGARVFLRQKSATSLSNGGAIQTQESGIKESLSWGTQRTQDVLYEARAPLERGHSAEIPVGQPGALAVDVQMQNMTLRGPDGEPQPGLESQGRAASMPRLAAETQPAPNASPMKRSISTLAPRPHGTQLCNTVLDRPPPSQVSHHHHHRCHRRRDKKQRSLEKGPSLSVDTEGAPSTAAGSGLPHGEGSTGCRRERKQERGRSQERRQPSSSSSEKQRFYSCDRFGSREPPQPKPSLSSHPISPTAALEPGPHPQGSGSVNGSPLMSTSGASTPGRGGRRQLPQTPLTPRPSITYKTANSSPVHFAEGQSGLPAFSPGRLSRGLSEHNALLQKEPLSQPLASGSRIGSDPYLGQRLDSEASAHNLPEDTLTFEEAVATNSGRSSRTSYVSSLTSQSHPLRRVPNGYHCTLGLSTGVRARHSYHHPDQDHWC
# Source text: as §1
# [1] = test system: COMT (catechol- O-methyl transferase); assay: BioPrint panel: COMT (catechol- O-methyl transferase); format: biochemical; details: 1 micromolar
# Source text: as §1
# 5-HT4e = target: T5, 5-HT4e (Homo sapiens, UniProt Q13639); assay: BioPrint panel: 5-HT4e (h) (antagonist); format: binding; details: 1 micromolar, read-out: percentage of inhibition of activity
# T5 construct: purchased Eurofins Pharma Discovery Services (KinaseProfiler; Cerep BioPrint panel)
# T5 sequence (Q13639 1-378 isoform Q13639-5): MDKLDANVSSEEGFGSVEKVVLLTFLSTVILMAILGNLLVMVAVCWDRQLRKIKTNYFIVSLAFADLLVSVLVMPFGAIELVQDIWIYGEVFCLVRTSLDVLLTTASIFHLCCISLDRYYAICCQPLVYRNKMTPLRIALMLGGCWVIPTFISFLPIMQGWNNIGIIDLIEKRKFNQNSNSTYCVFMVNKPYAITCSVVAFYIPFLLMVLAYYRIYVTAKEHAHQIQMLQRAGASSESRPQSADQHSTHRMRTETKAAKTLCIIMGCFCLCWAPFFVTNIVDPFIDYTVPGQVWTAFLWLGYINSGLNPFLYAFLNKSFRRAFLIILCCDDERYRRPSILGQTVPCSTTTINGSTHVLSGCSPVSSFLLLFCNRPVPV
# Source text: as §1
# ETA = target: T6, ETA (Homo sapiens, UniProt P25101); assay: BioPrint panel: ETA (h) (agonist); format: binding; details: 1 micromolar, read-out: percentage of inhibition of activity
# T6 construct: purchased Eurofins Pharma Discovery Services (KinaseProfiler; Cerep BioPrint panel)
# Source text: as §1
# IP (PGI2) = target: T7, IP (PGI2) (Homo sapiens, UniProt P43119); assay: BioPrint panel: IP (PGI2) (h) (agonist); format: binding; details: 1 micromolar, read-out: percentage of inhibition of activity
# T7 construct: purchased Eurofins Pharma Discovery Services (KinaseProfiler; Cerep BioPrint panel)
# Source text: as §1
# N muscle-type = assay: BioPrint panel: N muscle-type (h) (antagonist); format: binding, human; details: 1 micromolar
# Source text: as §1
# H4 = target: T8, H4 (Homo sapiens, UniProt Q9H3N8); assay: BioPrint panel: H4 (h) (agonist); format: binding; details: 1 micromolar, read-out: percentage of inhibition of activity
# T8 construct: purchased Eurofins Pharma Discovery Services (KinaseProfiler; Cerep BioPrint panel)
# T8 sequence (Q9H3N8 whole entry): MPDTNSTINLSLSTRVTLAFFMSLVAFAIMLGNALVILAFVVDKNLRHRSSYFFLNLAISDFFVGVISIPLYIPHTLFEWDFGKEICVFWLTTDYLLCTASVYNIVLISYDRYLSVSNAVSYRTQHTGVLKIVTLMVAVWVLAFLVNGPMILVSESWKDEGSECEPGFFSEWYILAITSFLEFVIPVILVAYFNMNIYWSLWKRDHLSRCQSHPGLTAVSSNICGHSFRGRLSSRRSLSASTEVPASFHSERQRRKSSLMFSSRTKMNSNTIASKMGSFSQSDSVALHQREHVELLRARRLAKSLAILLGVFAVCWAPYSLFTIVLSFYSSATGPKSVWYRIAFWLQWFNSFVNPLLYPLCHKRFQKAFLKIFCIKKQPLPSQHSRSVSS
# Source text: as §1
# delta 2 (DOP) = target: T9, delta 2 (DOP) (Homo sapiens, UniProt P41143); assay: BioPrint panel: delta 2 (DOP) (h) (agonist); format: binding; details: 1 micromolar, read-out: percentage of inhibition of activity
# T9 construct: purchased Eurofins Pharma Discovery Services (KinaseProfiler; Cerep BioPrint panel)
# Source text: as §1
# I1 = assay: BioPrint panel: I1 (agonist); format: binding; details: 1 micromolar
# Source text: as §1
# M4 = target: T10, M4 (Homo sapiens, UniProt P08173); assay: BioPrint panel: M4 (h) (antagonist); format: binding; details: 1 micromolar, read-out: percentage of inhibition of activity
# T10 construct: purchased Eurofins Pharma Discovery Services (KinaseProfiler; Cerep BioPrint panel)
# Source text: as §1
# MC4 = target: T11, MC4 (Homo sapiens, UniProt P32245); assay: BioPrint panel: MC4 (h) (agonist); format: binding; details: 1 micromolar, read-out: percentage of inhibition of activity
# T11 construct: purchased Eurofins Pharma Discovery Services (KinaseProfiler; Cerep BioPrint panel)
# Source text: as §1
# sigma (non-selective) = assay: BioPrint panel: sigma (non-selective) (h) (agonist); format: binding, human; details: 1 micromolar
# Source text: as §1
# DNA-PK = target: T12, DNA-PK (Homo sapiens, UniProt P78527); assay: DNA-PK activity (SelectScreen); details: biochemical dose response, duplicate; read-out: Inhibition of indicated activity (IC50, μM): DNA-PK
# T12 construct: Thermo Fisher Scientific SelectScreen (contract assay service)
# Protocol: Kinase selectivity was evaluated at Eurofins Pharma Discovery Services using a selection of 125 representative kinases tested at a concentration of 10 μM in duplicate (S3 Table). IC50 values for selected activities were further characterized at 9 duplicate concentrations. DNA-PK activity was determined at the SelectScreen® Biochemical kinase Profiling Service of Thermo Fisher Scientific.
# [2] = test system: Ca2+ channel (L, dihydropyridine site); assay: BioPrint panel: Ca2+ channel (L, dihydropyridine site) (antagonist); format: binding; details: 1 micromolar
# Source text: as §1
# APJ (apelin) = target: T13, APJ (apelin) (Homo sapiens, UniProt P35414); assay: BioPrint panel: APJ (apelin) (h) (agonist); format: binding; details: 1 micromolar, read-out: percentage of inhibition of activity
# T13 construct: purchased Eurofins Pharma Discovery Services (KinaseProfiler; Cerep BioPrint panel)
# Source text: as §1
# beta 3 = target: T14, beta 3 (Homo sapiens, UniProt P13945); assay: BioPrint panel: beta 3 (h) (antagonist); format: binding; details: 1 micromolar, read-out: percentage of inhibition of activity
# T14 construct: purchased Eurofins Pharma Discovery Services (KinaseProfiler; Cerep BioPrint panel)
# Source text: as §1
# MT3 (QR2) = target: T15, MT3 (QR2) (Mesocricetus auratus, UniProt A0ABM2YAB8); assay: BioPrint panel: MT3; format: binding
# T15 construct: Eurofins Pharma Discovery Services (contract assay service)
# T15 sequence (A0ABM2YAB8 1-231): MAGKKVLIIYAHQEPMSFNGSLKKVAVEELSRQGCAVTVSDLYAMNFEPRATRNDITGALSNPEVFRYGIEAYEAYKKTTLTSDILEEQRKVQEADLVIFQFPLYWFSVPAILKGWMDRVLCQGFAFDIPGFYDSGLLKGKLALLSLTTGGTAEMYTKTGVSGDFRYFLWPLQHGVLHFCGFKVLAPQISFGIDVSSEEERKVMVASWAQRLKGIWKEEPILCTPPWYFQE
# Protocol: General selectivity profiling was performed at Eurofins Pharma Discovery Services using the BioPrint® panel and reference database. The panel included 104 binding assays (non-peptide, peptide and nuclear receptors, ion channels and amine transporters) and 41 cell based and enzyme assays (including 10 kinases, 9 proteases and 5 phosphodiesterases) (S4 Table). More than 70% were human targets. Compound 4 was tested at a concentration of 1 μM in duplicate (10 μM for P-gp and CYP enzymes). The resulting bioactivity fingerprint was compared with a database of >2,500 BioPrint marketed drugs and reference compounds. IC50 values for selected activities were further characterized at 8 concentrations in duplicate.
# 5-HT6 = target: T16, 5-HT6 (Homo sapiens, UniProt P50406); assay: BioPrint panel: 5-HT6 (h) (agonist); format: binding; details: 1 micromolar, read-out: percentage of inhibition of activity
# T16 construct: purchased Eurofins Pharma Discovery Services (KinaseProfiler; Cerep BioPrint panel)
# Source text: as §1
# Abl = target: T17, Abl (Homo sapiens, UniProt P00519); assay: BioPrint panel: Abl kinase (h); format: biochemical; details: 1 micromolar, read-out: percentage of inhibition of activity
# T17 construct: purchased Eurofins Pharma Discovery Services (KinaseProfiler; Cerep BioPrint panel)
# Source text: as §1
# CRF1 = target: T18, CRF1 (Homo sapiens, UniProt P34998); assay: BioPrint panel: CRF1 (h) (agonist); format: binding; details: 1 micromolar, read-out: percentage of inhibition of activity
# T18 construct: purchased Eurofins Pharma Discovery Services (KinaseProfiler; Cerep BioPrint panel)
# Source text: as §1
# CHO-K1 cells = assay: CHO-K1 viability (ATPlite); format: cell-based; details: 25 μM
# Protocol: The viability of NHBE and CHO-K1 cells was quantified using ATP as an indirect read out of the potential cytotoxicity of the compounds. […] Plates were shaken and covered with aluminium foil for 25 min. Luminescence was measured in an Envision reader (Perkin Elmer). Evaluation of viability in CHO-K1 cells was used as an internal compound cytotoxicity standard across cellular assays. […] The plates were incubated for 24 h at 37°C in 5% CO2. After the incubation period, the culture medium was removed and washed with 100 μl of DPBS. Test compounds were dissolved and serially diluted in 100% DMSO. A final 1/100 dilution of each concentration was performed using F12 culture medium with 0.5% FBS. A volume of 100 μl culture medium containing the compounds or 1% DMSO (for control wells) was added to the wells containing the cells and the plate was incubated again 24h. After 24h of compound exposure, cells were washed with DPBS. Then, 100 μl of PBS were added, followed by the addition of 100 μl of ATPlite™ reagent. The plate was shaken for 25 minutes using a microtiter plate shaker. Luminescence was measured using a Luminoskan Ascent luminometer (Thermo Fisher Scientific).
# For CHO-K1 viability assays, a standard curve of cells was included in the plate. Luminescence values versus cell number were plotted and the data adjusted to a linear equation. Luminescence values of the samples were interpolated to obtain number of cells. IC50 values were obtained by non-linear regression using Activity Base software (IDBS) and a four-parameter log equation.
smiles,measurement,setting,value
Cn1cc(-c2cccc(-c3nc(C(=O)NC4C5CC6CC4CC(O)(C6)C5)c(N)nc3N)c2)cn1 (stereo not drawn) [compound 4],inhibition at 1 µM,PDE4D2,3%
same,percentage of inhibition of activity,HIV-1 protease,-16.1%
same,inhibition at 1 µM,ERalpha,-10.3%
same,inhibition at 1 µM,N neuronal a4 b2,-13.9%
same,inhibition at 1 µM,Ca2+ channel (N),-2.7%
same,percentage of inhibition of activity,[1],INTER
same,inhibition at 1 µM,5-HT4e,3.8%
same,inhibition at 1 µM,ETA,-12.5%
same,inhibition at 1 µM,IP (PGI2),-5.1%
same,percentage of inhibition of activity,N muscle-type,-17.1%
same,inhibition at 1 µM,H4,-1.7%
same,inhibition at 1 µM,delta 2 (DOP),-0.2%
same,percentage of inhibition of activity,I1,11.5%
same,inhibition at 1 µM,M4,0.7%
same,inhibition at 1 µM,MC4,-5.1%
same,percentage of inhibition of activity,sigma (non-selective),5.9%
same,IC50,DNA-PK,0.348 µM
same,percentage of inhibition of activity,[2],-3.5%
same,inhibition at 1 µM,APJ (apelin),0.8%
same,inhibition at 1 µM,beta 3,8.1%
same,inhibition at 1 µM,"MT3 (QR2); 1 μM, read-out: inhibition of MT3",71%
same,inhibition at 1 µM,"MT3 (QR2); 1 micromolar, MT3 (ML2) (agonist), read-out: percentage of inhibition of activity",71.9%
same,IC50,"MT3 (QR2); dose response, duplicate, read-out: Inhibition of indicated activity (IC50, μM): MT3 (QR2)",0.4 µM
same,inhibition at 1 µM,5-HT6,-5.3%
same,inhibition at 1 µM,Abl,-4.6%
same,inhibition at 1 µM,CRF1,-37%
"COc1c(NC(=O)c2ccc(C)c(-c3nnc4c(NCC(C)(C)C)nccn34)c2)cc(C(C)(C)C)cc1NS(C)(=O)=O [compound 7, reference compound]",Inhibition of CHO viability at [25 μM] % Inhibition ± SD,CHO-K1 cells,0.39 ± 11%
